Source: patent US20230398130A1, “METHODS AND COMPOSITIONS FOR DIFFERENTIATING STEM CELLS” (Massachusetts Institute of Technology, priority 2020, published 2023)

How the values were obtained:
ISC-enriched organoids [1] = assay: Primary screen, 384-well 2.5-D organoid differentiation (ENR+CD, 6 days): basal lysozyme secretion (LYZ.NS); assay type: cell-based, murine; conditions: for Dose.FC.LYZ.NS: FC vs plate median; for Z.LYZ.NS: standard z score of FC; for Dose.FC.LYZ.NS (log 2 fold change, basal lysozyme secretion): vs plate median
Description: (§1) High-throughput screening.

ISC-enriched organoids [2] = assay: Primary screen, 384-well 2.5-D organoid differentiation (ENR+CD, 6 days): carbachol-induced lysozyme secretion (LYZ.S); assay type: cell-based, murine; conditions: for Dose.FC.LYZ.S: FC vs plate median; for Dose.FC.LYZ.S (log 2 fold change, carbachol-induced lysozyme secretion): vs plate median
Description: as §1

ISC-enriched organoids [3] = assay: Primary screen, 384-well 2.5-D organoid differentiation (ENR+CD, 6 days, Target Selective Inhibitor Library, vs whole-plate median): ATP (CellTiter-Glo 3D, CTG); conditions: for Dose.FC.CTG: FC vs plate median; for Z.CTG: standard z score of FC; for Dose.FC.CTG (log 2 fold change, ATP): vs plate median

SMILES | Dose.FC.LYZ.NS (ISC-enriched organoids [1]; Dose 0.08 uM, primary screen) [log 2 fold change] | Z.LYZ.NS (ISC-enriched organoids [1]; Dose 0.08 uM) | Dose.FC.LYZ.NS (ISC-enriched organoids [1]; Dose 0.40 uM, primary screen) [log 2 fold change] | Z.LYZ.NS (ISC-enriched organoids [1]; Dose 0.40 uM) | Dose.FC.LYZ.NS (ISC-enriched organoids [1]; Dose 2.00 uM, primary screen) [log 2 fold change] | Z.LYZ.NS (ISC-enriched organoids [1]; Dose 2.00 uM) | Dose.FC.LYZ.NS (ISC-enriched organoids [1]; Dose 10.00 uM, primary screen) [log 2 fold change] | Z.LYZ.NS (ISC-enriched organoids [1]; Dose 10.00 uM) | Dose.FC.LYZ.S (ISC-enriched organoids [2]; Dose 0.08 uM, primary screen) [log 2 fold change] | Dose.FC.LYZ.S (ISC-enriched organoids [2]; Dose 0.40 uM, primary screen) [log 2 fold change] | Dose.FC.LYZ.S (ISC-enriched organoids [2]; Dose 2.00 uM, primary screen) [log 2 fold change] | Dose.FC.LYZ.S (ISC-enriched organoids [2]; Dose 10.00 uM, primary screen) [log 2 fold change] | Dose.FC.CTG (ISC-enriched organoids [3]; Dose 0.08 uM, primary screen) [log 2 fold change] | Z.CTG (ISC-enriched organoids [3]; Dose 0.08 uM) | Dose.FC.CTG (ISC-enriched organoids [3]; Dose 0.40 uM, primary screen) [log 2 fold change] | Z.CTG (ISC-enriched organoids [3]; Dose 0.40 uM) | Dose.FC.CTG (ISC-enriched organoids [3]; Dose 2.00 uM, primary screen) [log 2 fold change] | Z.CTG (ISC-enriched organoids [3]; Dose 2.00 uM) | Dose.FC.CTG (ISC-enriched organoids [3]; Dose 10.00 uM, primary screen) [log 2 fold change] | Z.CTG (ISC-enriched organoids [3]; Dose 10.00 uM) | also measured
C#Cc1cccc(Nc2ncnc3cc(OCCOC)c(OCCO)cc23)c1 [OSI-420] | 0.115 | 1.002 | −0.224 | −1.948 | −0.287 | −2.498 | −0.325 | −2.833 | 0.059 | −0.221 | −0.381 | −0.374 | 0.106 | 0.254 | −0.130 | −0.311 | −1.263 | −3.016 | −1.100 | −2.627 | 
CS(=O)(=O)c1ccc(-c2cnc(N)c(C(=O)Nc3ccccc3)n2)cc1 [VE-821] |  |  |  |  |  |  |  |  |  |  |  |  |  |  |  |  |  |  |  |  | Z.LYZ.NS (standard z score) (ISC-enriched organoids [1]; dose 0.08 uM): 0.924; Dose.FC.LYZ.NS (log 2 fold change, basal lysozyme secretion) (ISC-enriched organoids [1]; dose 0.08 uM): 0.106; Z.LYZ.NS (standard z score) (ISC-enriched organoids [1]; dose 0.40 uM): 0.544; Dose.FC.LYZ.NS (log 2 fold change, basal lysozyme secretion) (ISC-enriched organoids [1]; dose 0.40 uM): 0.063; Z.LYZ.NS (standard z score) (ISC-enriched organoids [1]; dose 2.00 uM): 0.901; Dose.FC.LYZ.NS (log 2 fold change, basal lysozyme secretion) (ISC-enriched organoids [1]; dose 2.00 uM): 0.103; Z.LYZ.NS (standard z score) (ISC-enriched organoids [1]; dose 10.00 uM): −2.475; Dose.FC.LYZ.NS (log 2 fold change, basal lysozyme secretion) (ISC-enriched organoids [1]; dose 10.00 uM): −0.284; Dose.FC.LYZ.S (log 2 fold change, carbachol-induced lysozyme secretion) (ISC-enriched organoids [2]; dose 0.08 uM): 0.130; Dose.FC.LYZ.S (log 2 fold change, carbachol-induced lysozyme secretion) (ISC-enriched organoids [2]; dose 0.40 uM): 0.089; Dose.FC.LYZ.S (log 2 fold change, carbachol-induced lysozyme secretion) (ISC-enriched organoids [2]; dose 2.00 uM): −0.004; Dose.FC.LYZ.S (log 2 fold change, carbachol-induced lysozyme secretion) (ISC-enriched organoids [2]; dose 10.00 uM): −0.429; Z.CTG (standard z score) (ISC-enriched organoids [3]; dose 0.08 uM): 0.508; Dose.FC.CTG (log 2 fold change, ATP) (ISC-enriched organoids [3]; dose 0.08 uM): 0.213; Z.CTG (standard z score) (ISC-enriched organoids [3]; dose 0.40 uM): 0.311; Dose.FC.CTG (log 2 fold change, ATP) (ISC-enriched organoids [3]; dose 0.40 uM): 0.130; Z.CTG (standard z score) (ISC-enriched organoids [3]; dose 2.00 uM): −0.328; Dose.FC.CTG (log 2 fold change, ATP) (ISC-enriched organoids [3]; dose 2.00 uM): −0.137; Z.CTG (standard z score) (ISC-enriched organoids [3]; dose 10.00 uM): −2.006; Dose.FC.CTG (log 2 fold change, ATP) (ISC-enriched organoids [3]; dose 10.00 uM): −0.840
O=C(Nc1cccnc1)N1CCC(Cc2cccc(Oc3ccc(C(F)(F)F)cn3)c2)CC1 [PF-3845] | 0.061 | 0.532 | −0.077 | −0.668 | −0.015 | −0.131 | −0.131 | −1.137 | 0.027 | −0.061 | −0.032 | −0.195 | −0.047 | −0.112 | 0.052 | 0.125 | −0.103 | −0.246 | −0.286 | −0.684 | 
c1ccc(CNc2nc(NCc3ccccc3)c3ccccc3n2)cc1 [DBeQ] |  | 0.844 |  | 0.558 |  | −0.414 |  | −2.577 |  |  |  |  |  | 0.285 |  | −0.031 |  | 0.010 |  | −2.706 | Dose.FC.LYZ.NS (ISC-enriched organoids [1]; Dose 0.08 uM, ENR+CD, 6 days): 0.097 log 2 fold change; Dose.FC.LYZ.NS (ISC-enriched organoids [1]; Dose 0.40 uM, ENR+CD, 6 days): 0.064 log 2 fold change; Dose.FC.LYZ.NS (ISC-enriched organoids [1]; Dose 2.00 uM, ENR+CD, 6 days): −0.048 log 2 fold change; Dose.FC.LYZ.NS (ISC-enriched organoids [1]; Dose 10.00 uM, ENR+CD, 6 days): −0.296 log 2 fold change; Dose.FC.LYZ.S (ISC-enriched organoids [2]; Dose 0.08 uM, ENR+CD, 6 days): 0.045 log 2 fold change; Dose.FC.LYZ.S (ISC-enriched organoids [2]; Dose 0.40 uM, ENR+CD, 6 days): 0.210 log 2 fold change; Dose.FC.LYZ.S (ISC-enriched organoids [2]; Dose 2.00 uM, ENR+CD, 6 days): −0.103 log 2 fold change; Dose.FC.LYZ.S (ISC-enriched organoids [2]; Dose 10.00 uM, ENR+CD, 6 days): −0.423 log 2 fold change; Dose.FC.CTG (ISC-enriched organoids [3]; Dose 0.08 uM, ENR+CD, 6 days): 0.119 log 2 fold change; Dose.FC.CTG (ISC-enriched organoids [3]; Dose 0.40 uM, ENR+CD, 6 days): −0.013 log 2 fold change; Dose.FC.CTG (ISC-enriched organoids [3]; Dose 2.00 uM, ENR+CD, 6 days): 0.004 log 2 fold change; Dose.FC.CTG (ISC-enriched organoids [3]; Dose 10.00 uM, ENR+CD, 6 days): −1.133 log 2 fold change
